Laboratory results published in patent US20250136558A1, “PYRAZINE COMPOUNDS AS IRREVERSIBLE INHIBITORS OF FLT3” (BIOMEA FUSION, INC., priority 2021, published 2025).

How the values were obtained:
Assay type in all cases: cell-based
MOLM-13 = assay: Proliferation inhibition (CellTiter-Glo) in MOLM-13 cells; conditions: Homo sapiens, 96 h, MOLM-13 AML cells, heterozygous FLT3-ITD, IC50 (4 days)
Text: (§1) The Proliferation Inhibitory Effect was Investigated in Human AML Cell Lines MOLM-13 (AddexBio: C0003003) [REF: Pubmed: 9305600] and MV-4-11 (ATCC: CRL-9591) [REF PMID: 3496132], and CML cell line […] (ATCC: CRL-3343) [REF PMID: 163658]. Molm-13 is heterozygous for FLT3-ITD mutation, while MV4-11 is homozygous for FLT3-ITD [PMID: 12529668]. […] Cells were maintained in RPMI-1640 medium (ThermoFisher catalog no. 61870036) supplemented with 10% of Heat Inactivated FBS (ThermoFisher catalog no.A31605) and 1% Pen-Strep (Thermofisher catalog no. 10378016) and cultured at 37° C. in a humidified incubator with 5% CO2. Cell lines were […], and the cells were maintained in a range 70%-80% confluency.
(§2) ATP is present in all metabolically active cells and is considered as a marker for cell viability and proliferation. Metabolic cell activity was determined using the CellTiter-Glo kit (Promega catalog no. G7572), an ATP monitoring system based on the production of luminescence by the reaction of ATP with added UltraGlo® recombinant luciferase (Kawano et al., 2016, PLOS One, 8; 11(7):e0158888), according to the supplier's experimental recommendations. The assay was based on a 96 well plate format.
(§3) Test compounds were dissolved at 10 mM in DMSO (Sigma catalog no. D8418; purity 299.9%) and stored at −20° C. Eight concentrations of test compound were assessed in duplicate in an individual test occasion in parallel in the selected cell lines. Gilteratinib and FF-10101 were used as reference compounds and tested in duplicate at eight concentrations. 100% of proliferation is represented by the untreated cells (0.2% DMSO).
(§4) On the day of the experiment (TO), cells were quantified with the cell viability analyser NucleoCounter (Chemometec NC-200) and diluted with fresh medium to obtain the cell density of about 10,000 cells per 200 μL medium. 200 μL of cell suspension were added into wells in the 96 well plate.
(§5) After 2 hours from seeding cells, compounds were added using a D300e compound dispenser (Life Sciences Tecan D300) at desired concentrations with shaking between each compound dispensed. Cell plates containing 200 μL/well suspension were incubated at 37° C. in a humidified incubator with […].
(§6) […] Contents were mixed for 5 min on an orbital shaker to induce cell lysis, and then incubated at room temperature for an additional 10 min in the dark to stabilize the luminescent signal. Luminescence was read by using a GloMax GM300 plate reader (Promega) using the luminescence for 96 well plate standard protocol.
(§7) Results were analysed by GraphPad (Prism) and IC50 values were calculated by non-linear regression using four parameter-logistic equation.

K-562 = assay: Proliferation inhibition (CellTiter-Glo) in K-562 cells; conditions: Homo sapiens, K562, 96 h, K-562 CML cells, no FLT3 mutations, IC50 (4 days)
Text: as §1, §2, §3, §4, §5, §6, §7

MV-4-11 = assay: Proliferation inhibition (CellTiter-Glo) in MV-4-11 cells; conditions: Homo sapiens, MV4-11, 96 h, MV-4-11 AML cells, homozygous FLT3-ITD, IC50 (4 days)
Text: as §1, §2, §3, §4, §5, §6, §7

Structure (SMILES)	IC50 (MOLM-13)	IC50 (K-562)	IC50 (MV-4-11)
C=CC(=O)N(C)[C@@H](C)C(=O)NCCNc1cc(Nc2nc(NC3CCOCC3)c(CC)nc2C(N)=O)ccn1 [Compound 40, 6-ethyl-3-[[2-[2-[[(2S)-2-[methyl(prop-2-enoyl)amino]propanoyl]amino]ethylamino]-4-pyridyl]amino]-5-(tetrahydropyran-4-ylamino)pyrazine-2-carboxamide]	1 to 10 nM	> 500 nM	1 to 10 nM
C=CS(=O)(=O)N(C)[C@@H](C)C(=O)NCCNc1cc(Nc2nc(NC3CCOCC3)c(CC)nc2C(N)=O)ccn1 [Compound 41, 6-ethyl-3-[[2-[2-[[(2S)-2-[methyl(vinylsulfonyl)amino]propanoyl]amino]ethylamino]-4-pyridyl]amino]-5-(tetrahydropyran-4-ylamino)pyrazine-2-carboxamide]	10 to 100 nM	> 500 nM	10 to 100 nM
CC#CC(=O)NCCC(=O)NCCc1cc(Nc2nc(NC3CCOCC3)c(CC)nc2C(N)=O)cc(OC)c1 [Compound 101, 3-[3-[2-[3-(but-2-ynoylamino)propanoylamino]ethyl]-5-methoxy-anilino]-6-ethyl-5-(tetrahydropyran-4-ylamino)pyrazine-2-carboxamide]	10 to 100 nM	> 500 nM	10 to 100 nM
C=CC(=O)N1CCC(C(=O)Nc2cccc(Nc3nc(NC4CCOCC4)c(CC)nc3C(N)=O)c2)CC1 [Compound 102, 6-ethyl-3-[3-[(1-prop-2-enoylpiperidine-4-carbonyl)amino]anilino]-5-(tetrahydropyran-4-ylamino)pyrazine-2-carboxamide]	10 to 100 nM	> 500 nM	10 to 100 nM
CCc1nc(C(N)=O)c(Nc2cc(C#CCNC(=O)[C@H](C)N(C)C(=O)/C=C/CN(C)C)cc(OC)c2)nc1NC1CCOCC1 [Compound 103, 3-[3-[3-[[(2S)-2-[[(E)-4-(dimethylamino)but-2-enoyl]-methyl-amino]propanoyl]amino]prop-1-ynyl]-5-methoxy-anilino]-6-ethyl-5-(tetrahydropyran-4-ylamino)pyrazine-2-carboxamide]	1 to 10 nM	> 500 nM	< 1 nM
CC#CC(=O)N(C)[C@@H](C)C(=O)NCCOc1cccc(Nc2nc(NC3CCOCC3)c(CC)nc2C(N)=O)c1 [Compound 104, 3-[3-[2-[[(2S)-2-[but-2-ynoyl(methyl)amino]propanoyl]amino]ethoxy]anilino]-6-ethyl-5-(tetrahydropyran-4-ylamino)pyrazine-2-carboxamide]	1 to 10 nM	> 500 nM	1 to 10 nM
C=CC(=O)N1CC(CC(=O)Nc2cccc(Nc3nc(NC4CCOCC4)c(CC)nc3C(N)=O)c2)C1 [Compound 105, 6-ethyl-3-[3-[[2-(1-prop-2-enoylazetidin-3-yl)acetyl]amino]anilino]-5-(tetrahydropyran-4-ylamino)pyrazine-2-carboxamide]	10 to 100 nM	> 500 nM	1 to 10 nM
C=CC(=O)NCCN1CCc2ccc(Nc3nc(NC4CCOCC4)c(CC)nc3C(N)=O)cc2C1=O [Compound 106]	10 to 100 nM	> 500 nM	10 to 100 nM

The next lines start with the values.

IC50 (MOLM-13)	IC50 (K-562)	IC50 (MV-4-11)	Structure (SMILES)
1 to 10 nM	> 500 nM	1 to 10 nM	C=CC(=O)N(C)[C@@H](C)C(=O)NCC#Cc1cc(Nc2nc(NC3CCOCC3)c(CC)nc2C(N)=O)cc(OC)c1 [Compound 107, 6-ethyl-3-[3-methoxy-5-[3-[[(2S)-2-[methyl(prop-2-enoyl)amino]propanoyl]amino]prop-1-ynyl]anilino]-5-(tetrahydropyran-4-ylamino)pyrazine-2-carboxamide]
1 to 10 nM	> 500 nM	1 to 10 nM	CC#CC(=O)N(C)[C@@H](C)C(=O)NCC#Cc1cc(Nc2nc(NC3CCOCC3)c(CC)nc2C(N)=O)cc(OC)c1 [Compound 108, 3-[3-[3-[[(2S)-2-[but-2-ynoyl(methyl)amino]propanoyl]amino]prop-1-ynyl]-5-methoxy-anilino]-6-ethyl-5-(tetrahydropyran-4-ylamino)pyrazine-2-carboxamide]
1 to 10 nM	> 500 nM	1 to 10 nM	C=CC(=O)N(C)[C@@H](C)C(=O)NCCc1cc(Nc2nc(NC3CCOCC3)c(CC)nc2C(N)=O)cc(OC)c1 [Compound 109, 6-ethyl-3-[3-methoxy-5-[2-[[(2S)-2-[methyl(prop-2-enoyl)amino]propanoyl]amino]ethyl]anilino]-5-(tetrahydropyran-4-ylamino)pyrazine-2-carboxamide]
1 to 10 nM	> 500 nM	< 1 nM	CCc1nc(C(N)=O)c(Nc2cc(CCNC(=O)[C@H](C)N(C)C(=O)/C=C/CN(C)C)cc(OC)c2)nc1NC1CCOCC1 [Compound 110, 3-[3-[2-[[(2S)-2-[[(E)-4-(dimethylamino)but-2-enoyl]-methyl-amino]propanoyl]amino]ethyl]-5-methoxy-anilino]-6-ethyl-5-(tetrahydropyran-4-ylamino)pyrazine-2-carboxamide]
10 to 100 nM	> 500 nM	1 to 10 nM	CC#CC(=O)N(C)[C@@H](C)C(=O)NCCc1cc(Nc2nc(NC3CCOCC3)c(CC)nc2C(N)=O)cc(OC)c1 [Compound 111, 3-[3-[2-[[(2S)-2-[but-2-ynoyl(methyl)amino]propanoyl]amino]ethyl]-5-methoxy-anilino]-6-ethyl-5-(tetrahydropyran-4-ylamino)pyrazine-2-carboxamide]
100 to 500 nM	> 500 nM	100 to 500 nM	C=CC(=O)N1CCC(C(=O)Nc2cccc(Nc3nc(NC4CCOCC4)c(CC)nc3C(N)=O)c2)C1 (stereo not drawn) [Compound 112, 6-ethyl-3-[3-[(1-prop-2-enoylpyrrolidine-3-carbonyl)amino]anilino]-5-(tetrahydropyran-4-ylamino)pyrazine-2-carboxamide]
1 to 10 nM	> 500 nM	< 1 nM	C=CC(=O)N(C)[C@@H](C)C(=O)NCC#Cc1cc(Nc2nc(NC3CCOCC3)c(CC)nc2C(N)=O)ccc1OC [Compound 113, 6-ethyl-3-[4-methoxy-3-[3-[[(2S)-2-[methyl(prop-2-enoyl)amino]propanoyl]amino]prop-1-ynyl]anilino]-5-(tetrahydropyran-4-ylamino)pyrazine-2-carboxamide]
10 to 100 nM	> 500 nM	1 to 10 nM	CC#CC(=O)N(C)[C@@H](C)C(=O)NCCCOc1cccc(Nc2nc(NC3CCOCC3)c(CC)nc2C(N)=O)c1 [Compound 114, 3-[3-[3-[[(2S)-2-[but-2-ynoyl(methyl)amino]propanoyl]amino]propoxy]anilino]-6-ethyl-5-(tetrahydropyran-4-ylamino)pyrazine-2-carboxamide]
1 to 10 nM	> 500 nM	< 1 nM	CCc1nc(C(N)=O)c(Nc2cccc(OC(C)CCNC(=O)[C@H](C)N(C)C(=O)/C=C/CN(C)C)c2)nc1NC1CCOCC1 (stereo partly drawn) [Compound 115, 3-[3-[3-[[(2S)-2-[[(E)-4-(dimethylamino)but-2-enoyl]-methyl-amino]propanoyl]amino]-1-methyl-propoxy]anilino]-6-ethyl-5-(tetrahydropyran-4-ylamino)pyrazine-2-carboxamide]
